Measured values published in PubChem BioAssay (NCI).
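Tested at 5 concentrations; 48 h exposure; 96-well plates; endpoints linearly interpolated, else capped at highest concentration. TGI: concentration producing complete growth inhibition.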

What was measured:
Assay in all cases: inhibition of tumour cell growth, NCI panel, 48 h
M14 melanoma = tested on: M14 melanoma
SK-MEL-2 melanoma = tested on: SK-MEL-2 melanoma
DU-145 prostate = tested on: DU-145 prostate
SR leukemia = tested on: SR leukemia
T-47D breast = tested on: T-47D breast
PC-3 prostate = tested on: PC-3 prostate
MALME-3M melanoma = tested on: MALME-3M melanoma
OVCAR-3 ovarian = tested on: OVCAR-3 ovarian
EKVX NSCLC = tested on: EKVX NSCLC
KM12 colon = tested on: KM12 colon
A549 NSCLC = tested on: A549 NSCLC
SK-MEL-5 melanoma = tested on: SK-MEL-5 melanoma
CAKI-1 renal = tested on: CAKI-1 renal
786-0 renal = tested on: 786-0 renal
HS 578T breast = tested on: HS 578T breast
HCC-2998 colon = tested on: HCC-2998 colon
IGROV1 ovarian = tested on: IGROV1 ovarian
U251 CNS = tested on: U251 CNS
UO-31 renal = tested on: UO-31 renal
SF-268 CNS = tested on: SF-268 CNS
SN12C renal = tested on: SN12C renal
OVCAR-5 ovarian = tested on: OVCAR-5 ovarian
OVCAR-4 ovarian = tested on: OVCAR-4 ovarian
OVCAR-8 ovarian = tested on: OVCAR-8 ovarian
MOLT-4 leukemia = tested on: MOLT-4 leukemia
HOP-62 NSCLC = tested on: HOP-62 NSCLC
SNB-19 CNS = tested on: SNB-19 CNS
K-562 leukemia = tested on: K-562 leukemia
MCF7 breast = tested on: MCF7 breast
MDA-MB-435 = tested on: MDA-MB-435
RXF 393 renal = tested on: RXF 393 renal
NCI-H460 lung = tested on: NCI-H460 lung
RPMI-8226 leukemia = tested on: RPMI-8226 leukemia
NCI-H23 lung = tested on: NCI-H23 lung
NCI-H522 lung = tested on: NCI-H522 lung
SK-MEL-28 melanoma = tested on: SK-MEL-28 melanoma
HCT-15 colon = tested on: HCT-15 colon
HT29 colon = tested on: HT29 colon
TK-10 renal = tested on: TK-10 renal
HL-60(TB) leukemia = tested on: HL-60(TB) leukemia
MDA-MB-231 breast = tested on: MDA-MB-231 breast
CCRF-CEM leukemia = tested on: CCRF-CEM leukemia
SW-620 colon = tested on: SW-620 colon
HOP-92 NSCLC = tested on: HOP-92 NSCLC
UACC-257 melanoma = tested on: UACC-257 melanoma
ACHN renal = tested on: ACHN renal
COLO 205 colon = tested on: COLO 205 colon
BT-549 breast = tested on: BT-549 breast
A498 renal = tested on: A498 renal
SK-OV-3 ovarian = tested on: SK-OV-3 ovarian
LOX IMVI melanoma = tested on: LOX IMVI melanoma
MDA-N = tested on: MDA-N
HCT-116 colon = tested on: HCT-116 colon
SF-539 CNS = tested on: SF-539 CNS
UACC-62 melanoma = tested on: UACC-62 melanoma
SF-295 CNS = tested on: SF-295 CNS
NCI/ADR-RES ovarian = tested on: NCI/ADR-RES ovarian
SNB-75 CNS = tested on: SNB-75 CNS

COc1cc(C2C3=C(COC3=O)OC(C)(C)Oc3cc4c(cc32)OCO4)cc(OC)c1O (stereo not given)
TGI (M14 melanoma): > 100 µM
TGI (SK-MEL-2 melanoma): > 100 µM
TGI (DU-145 prostate): > 100 µM
TGI (SR leukemia): > 100 µM
TGI (T-47D breast): > 100 µM
TGI (PC-3 prostate): > 100 µM
TGI (MALME-3M melanoma): > 100 µM
TGI (OVCAR-3 ovarian): > 100 µM
TGI (EKVX NSCLC): > 100 µM
TGI (KM12 colon): > 44.5 µM
TGI (A549 NSCLC): > 76.8 µM
TGI (SK-MEL-5 melanoma): 19.4 µM
TGI (CAKI-1 renal): > 46.4 µM
TGI (786-0 renal): > 100 µM
TGI (HS 578T breast): > 100 µM
TGI (HCC-2998 colon): 7.88 µM
TGI (IGROV1 ovarian): > 100 µM
TGI (U251 CNS): > 100 µM
TGI (UO-31 renal): > 100 µM
TGI (SF-268 CNS): > 100 µM
TGI (SN12C renal): > 100 µM
TGI (OVCAR-5 ovarian): > 100 µM
TGI (OVCAR-4 ovarian): > 100 µM
TGI (OVCAR-8 ovarian): > 100 µM
TGI (MOLT-4 leukemia): > 100 µM
TGI (HOP-62 NSCLC): > 100 µM
TGI (SNB-19 CNS): > 100 µM
TGI (K-562 leukemia): > 20.3 µM
TGI (MCF7 breast): > 100 µM
TGI (MDA-MB-435): 645 nM
TGI (RXF 393 renal): 552 nM
TGI (NCI-H460 lung): > 100 µM
TGI (RPMI-8226 leukemia): > 100 µM
TGI (NCI-H23 lung): > 22.1 µM
TGI (NCI-H522 lung): 6.72 µM
TGI (SK-MEL-28 melanoma): > 100 µM
TGI (HCT-15 colon): > 100 µM
TGI (HT29 colon): > 23.3 µM
TGI (TK-10 renal): > 100 µM
TGI (HL-60(TB) leukemia): 1490 nM
TGI (MDA-MB-231 breast): 11.5 µM
TGI (CCRF-CEM leukemia): > 100 µM
TGI (SW-620 colon): > 31.3 µM
TGI (HOP-92 NSCLC): > 94.5 µM
TGI (UACC-257 melanoma): > 100 µM
TGI (ACHN renal): > 100 µM
TGI (COLO 205 colon): 6.68 µM
TGI (BT-549 breast): > 100 µM
TGI (A498 renal): 68 µM
TGI (SK-OV-3 ovarian): > 100 µM
TGI (LOX IMVI melanoma): > 100 µM
TGI (MDA-N): 423 nM
TGI (HCT-116 colon): > 20.8 µM

O=C(O)c1cccc(Nc2c(C(=O)O)cccc2[N+](=O)[O-])c1
TGI (M14 melanoma): > 100 µM
TGI (SK-MEL-2 melanoma): > 100 µM
TGI (DU-145 prostate): > 100 µM
TGI (SR leukemia): > 100 µM
TGI (SF-539 CNS): > 100 µM
TGI (T-47D breast): > 100 µM
TGI (PC-3 prostate): > 100 µM
TGI (MALME-3M melanoma): > 100 µM
TGI (OVCAR-3 ovarian): > 100 µM
TGI (EKVX NSCLC): > 100 µM
TGI (KM12 colon): > 100 µM
TGI (A549 NSCLC): > 100 µM
TGI (SK-MEL-5 melanoma): > 100 µM
TGI (CAKI-1 renal): > 100 µM
TGI (786-0 renal): > 100 µM
TGI (HS 578T breast): > 100 µM
TGI (HCC-2998 colon): > 100 µM
TGI (IGROV1 ovarian): > 100 µM
TGI (UO-31 renal): > 100 µM
TGI (SN12C renal): > 100 µM
TGI (OVCAR-5 ovarian): > 100 µM
TGI (OVCAR-4 ovarian): > 100 µM
TGI (OVCAR-8 ovarian): > 100 µM
TGI (MOLT-4 leukemia): > 100 µM
TGI (HOP-62 NSCLC): > 100 µM
TGI (SNB-19 CNS): > 100 µM
TGI (K-562 leukemia): > 100 µM
TGI (UACC-62 melanoma): > 100 µM
TGI (MCF7 breast): > 100 µM
TGI (NCI-H460 lung): > 100 µM
TGI (RPMI-8226 leukemia): > 100 µM
TGI (NCI-H23 lung): > 100 µM
TGI (NCI-H522 lung): > 100 µM
TGI (HCT-15 colon): > 100 µM
TGI (HT29 colon): > 100 µM
TGI (TK-10 renal): > 100 µM
TGI (HL-60(TB) leukemia): > 100000 nM
TGI (MDA-MB-231 breast): > 100 µM
TGI (CCRF-CEM leukemia): > 100 µM
TGI (HOP-92 NSCLC): > 100 µM
TGI (SF-295 CNS): > 100 µM
TGI (UACC-257 melanoma): > 100 µM
TGI (ACHN renal): > 100 µM
TGI (COLO 205 colon): > 100 µM
TGI (BT-549 breast): > 100 µM
TGI (A498 renal): > 100 µM
TGI (SK-OV-3 ovarian): > 100 µM
TGI (LOX IMVI melanoma): > 100 µM
TGI (NCI/ADR-RES ovarian): > 100 µM
TGI (SNB-75 CNS): > 100 µM
TGI (MDA-N): > 100000 nM
TGI (HCT-116 colon): > 100 µM
